The test system of experiment [1] is U-2 OS. As to the kind of experiment: intracellular GSH:GSSG ratio (calculated); higher = more reduced glutathione pool. Particulars: 24 h. The protocol:
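Intracellular glutathione in U-2 OS cells after 24 h compound treatment at 5, 10 and 20 uM (some at 40 and 80 uM). Total glutathione and GSSG were measured with the GSH/GSSG-Glo kit, and the GSH:GSSG ratio was calculated. Mean of five technical replicate plates.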

The subject of experiment [2] is U-2 OS. In words: cell viability (CellTiter-Glo) relative to DMSO (% of control); higher = more viable. Particulars: 24 h. The protocol: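 Cell viability of U-2 OS cells by CellTiter-Glo after 24 h compound treatment at 5, 10 and 20 uM (some at 40 and 80 uM), measured in parallel with the glutathione assay, as percent of DMSO control. Five technical replicate plates, averaged.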
A general note: Cellular ATP, detected with luciferase, serves as a proxy for viable cell number.

Experiment [3] has as its system U-2 OS. In words: total intracellular glutathione (GSH + GSSG) relative to DMSO (% of control); higher = more glutathione. Particulars: 24 h. The procedure: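 Total intracellular glutathione (GSH + GSSG) in U-2 OS cells by GSH/GSSG-Glo after 24 h compound treatment at 5, 10 and 20 uM (some at 40 and 80 uM), as percent of DMSO control. Five technical replicate plates, averaged.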

In experiment [4] the test system is U-2 OS. As to the kind of experiment: cell painting activity score (Mahalanobis distance from DMSO wells); higher = stronger morphological phenotype. Particulars: 24 h. In a few lines: (§1)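 In this cell painting assay, roughly 1,500 U-2 OS cells per well in 384-well plates were pin-tool treated at 37 °C for 24 h, typically at six 2-fold steps from 20 μM down to 625 nM. Cells were stained with MitoTracker, concanavalin A, phalloidin, wheat germ agglutinin, Hoechst and SYTO 14, imaged on an Opera Phenix, and analysed in CellProfiler with normalization to same-plate DMSO cells. Reported values are means of four replicate plates, with the activity score defined as the Mahalanobis distance from DMSO wells and cell count defined relative to DMSO wells.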

For experiment [5], the system named is U-2 OS. As to the kind of experiment: relative cell count vs DMSO (cell painting) (fraction of DMSO control); higher = more cells remaining (less cytotoxic). Particulars: 24 h. Put shortly: as §1
For experiment [6], the system named is U-2 OS. In words: AUC of culture confluence over time (live-cell imaging) (AUC (confluence % x time)); higher = more confluent culture (less growth inhibition). Put shortly: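 Reported values are areas under curves of confluence against time, recorded by live-cell imaging of U-2 OS cells. Cells in F-12K medium with 10% FBS, seeded at 750 per well in 384-well plates, were treated by pin tool 24 h later, most compounds at 20, 10 and 5 μM with 0.2% DMSO. Imaging at 37 °C took place every 4 h for up to 60 h.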

The text below walks through data of the supplement of paper PMC10011410.

Molecules are shown by their SMILES. ± gives the standard deviation of the averaged measurements.

In the case of `O=C(CSC1CC(=O)N(c2cccc(Cl)c2)C1=O)Nc1ccc(Br)cc1` (centres undefined), the results for the “intracellular GSH:GSSG ratio” value in the experiment with U-2 OS [1] (5 µM), in the experiment with U-2 OS [1] (10 µM) and in the experiment with U-2 OS [1] (20 µM) were 28, 31.9 and 26.5, respectively. The cell viability with U-2 OS [2] (5 µM) is 105 ± 8.8; in the experiment with U-2 OS [2] (10 µM), 99.5 ± 4.2; with U-2 OS [2] (20 µM) it was 107 ± 5.8. Further, the total intracellular glutathione with U-2 OS [3] (5 µM) worked out at 94.6 ± 4.8; in the experiment on U-2 OS [3] (10 µM), 93.9 ± 4; in the experiment with U-2 OS [3] (20 µM), 95.2 ± 5.6. Besides, the “cell painting activity score” value in the experiment with U-2 OS [4] (0.625 µM) came out at 3.18; in the experiment on U-2 OS [4] (1.25 µM) it was 3.28; in the experiment on U-2 OS [4] (2.5 µM) it was 3.09; in the experiment with U-2 OS [4] (5 µM), 4.23; in the experiment on U-2 OS [4] (10 µM) it was 3.79; in the experiment on U-2 OS [4] (20 µM), 3.43. In addition, the relative cell count in the experiment with U-2 OS [5] (0.625 µM) amounted to 1.13; with U-2 OS [5] (1.25 µM) it was 1.13; in the experiment with U-2 OS [5] (2.5 µM) it was 1.06; in the experiment on U-2 OS [5] (5 µM) it was 1.06; in the experiment on U-2 OS [5] (10 µM), 1.1; in the experiment on U-2 OS [5] (20 µM), 1.12.
Regarding `COC(=O)c1ccc([C@H]2c3[nH]c4ccccc4c3C[C@H](C(=O)OC)N2C(=O)CCl)cc1`, the “intracellular GSH:GSSG ratio” value was 3.83 with U-2 OS [1] (5 µM), 3.98 in the experiment on U-2 OS [1] (10 µM) and 1.09 in the experiment on U-2 OS [1] (20 µM). The results for the cell viability with U-2 OS [2] (5 µM), in the experiment with U-2 OS [2] (10 µM) and in the experiment with U-2 OS [2] (20 µM) were 69.6 ± 4.1, 49.1 ± 4.9 and 6.2 ± 1.6, respectively. The total intracellular glutathione turned out to be 93.1 ± 5.2 in the experiment with U-2 OS [3] (5 µM), 75.3 ± 6.4 with U-2 OS [3] (10 µM) and 10.7 ± 1.2 in the experiment with U-2 OS [3] (20 µM). The “cell painting activity score” value was found to be 10.3 with U-2 OS [4] (0.625 µM); 10.7 with U-2 OS [4] (1.25 µM); 11.1 in the experiment on U-2 OS [4] (2.5 µM); 10.8 with U-2 OS [4] (5 µM); 10 in the experiment on U-2 OS [4] (10 µM); 17.9 with U-2 OS [4] (20 µM). For the same compound, the relative cell count amounted to 0.876 in the experiment on U-2 OS [5] (0.625 µM); 0.867 with U-2 OS [5] (1.25 µM); 0.818 in the experiment on U-2 OS [5] (2.5 µM); 0.68 in the experiment on U-2 OS [5] (5 µM); 0.524 in the experiment on U-2 OS [5] (10 µM); 0.186 in the experiment with U-2 OS [5] (20 µM).
Turning to `COc1cc(/C=C/c2cc(/C=C/c3ccc(O)c(OC)c3)n(-c3ccc(C(=O)[O-])cc3)n2)ccc1O.[Na+]`, the “intracellular GSH:GSSG ratio” value in the experiment with U-2 OS [1] (5 µM) is 40; in the experiment with U-2 OS [1] (10 µM), 33; in the experiment with U-2 OS [1] (20 µM) it was 36.1; with U-2 OS [1] (40 µM), 30.8; with U-2 OS [1] (80 µM) it was 11.8. Further, the cell viability amounted to 101 ± 2.3 in the experiment on U-2 OS [2] (5 µM); 95.6 ± 2.5 in the experiment with U-2 OS [2] (10 µM); 93.6 ± 3.2 in the experiment with U-2 OS [2] (20 µM); 89.6 ± 3.4 in the experiment on U-2 OS [2] (40 µM); 68.4 ± 3.8 in the experiment with U-2 OS [2] (80 µM). Also, the “cell painting activity score” value stood at 7.1 in the experiment on U-2 OS [4] (0.625 µM); 4.98 with U-2 OS [4] (1.25 µM); 6.19 in the experiment with U-2 OS [4] (2.5 µM); 4.45 in the experiment on U-2 OS [4] (5 µM); 6.38 in the experiment on U-2 OS [4] (10 µM); 6.87 in the experiment with U-2 OS [4] (20 µM). Besides, the “cell painting activity score” value was 5.98 with U-2 OS [4] (40 µM) and 9 with U-2 OS [4] (80 µM). Further, the relative cell count with U-2 OS [5] (0.625 µM) was 1.04; in the experiment with U-2 OS [5] (1.25 µM) it was 1.08; with U-2 OS [5] (2.5 µM) it was 1.05; in the experiment on U-2 OS [5] (5 µM) it was 1.07; with U-2 OS [5] (10 µM) it was 1.09; with U-2 OS [5] (20 µM) it was 1.05. Further, the values for the relative cell count with U-2 OS [5] (40 µM) and in the experiment with U-2 OS [5] (80 µM) were 0.866 and 0.789, respectively. Besides, the “AUC of culture confluence over time” value in the experiment with U-2 OS [6] (5 µM) came to 45.1; in the experiment on U-2 OS [6] (10 µM), 42.2; in the experiment with U-2 OS [6] (20 µM) it was 42.1; in the experiment on U-2 OS [6] (40 µM) it was 27.3; in the experiment on U-2 OS [6] (80 µM) it was 25.3.
With `O=S1(=O)CC(SCc2ccccc2)c2ccccc21` (centres undefined), the “intracellular GSH:GSSG ratio” value is 30.3 in the experiment with U-2 OS [1] (5 µM), 20.1 with U-2 OS [1] (10 µM) and 26.3 with U-2 OS [1] (20 µM). Also, the cell viability in the experiment with U-2 OS [2] (5 µM) was found to be 107 ± 2.6; in the experiment with U-2 OS [2] (10 µM) it was 104 ± 5.2; in the experiment on U-2 OS [2] (20 µM), 97.8 ± 5.9. For the same compound, the results for the total intracellular glutathione in the experiment with U-2 OS [3] (5 µM), in the experiment with U-2 OS [3] (10 µM) and in the experiment on U-2 OS [3] (20 µM) were 105 ± 2.7, 98.7 ± 6.5 and 106 ± 6.4, respectively. Besides, the “cell painting activity score” value in the experiment on U-2 OS [4] (0.625 µM) worked out at 4.11; in the experiment on U-2 OS [4] (1.25 µM), 4.32; with U-2 OS [4] (2.5 µM) it was 4.24; in the experiment on U-2 OS [4] (5 µM), 4.29; in the experiment with U-2 OS [4] (10 µM) it was 3.77; in the experiment on U-2 OS [4] (20 µM), 3.73. For the same compound, the relative cell count came out at 1.13 in the experiment with U-2 OS [5] (0.625 µM); 1.12 in the experiment on U-2 OS [5] (1.25 µM); 1.06 in the experiment with U-2 OS [5] (2.5 µM); 1.07 in the experiment on U-2 OS [5] (5 µM); 1.14 with U-2 OS [5] (10 µM); 1.12 with U-2 OS [5] (20 µM).
